From US20080045588A1, “Preparation and utility of substituted amphetamines” (Auspex Pharmaceuticals, Inc., priority 2006, published 2008)
Read-outs that look alike come from different tables or passages of the source.

Target: CYP2D6 (Homo sapiens, UniProt P10635)
Experiment: In vitro inhibition of human cytochrome P450 enzymes (fluorometric, 3-cyano-7-ethoxycoumarin substrate)
Method: In vitro Inhibition of Human Cytochrome P450 Enzymes
Solution A: NADPH-Regenerating System
To a glass tube on ice were added sequentially: 2% aqueous solution of sodium bicarbonate (10 mL) in NADP^+ (17 mg), glucose-6-phosphate (78 mg) and glucose-6-phosphate dehydrogenase (60 units).
To a glass tube on ice were added sequentially: 0.5 M KH2PO4 (pH 7.4, 2.4 mL), water (9 mL), CYP2D6 (480 μL of 1 picomol/microliter), and 3-cyano-7-ethoxycoumarin (5 mM in 2% acetonitrile-water, 120 microliter).
Solution A was transferred to a 96-well black plate (80 microliter per well), followed by various concentrations of a solution of N-methyl-1-[3,4-methylenedioxyphenyl]-2-aminopropane in 20% acetonitrile-water (20 microliter per well). The reaction was initiated by adding 100 microliter of solution B to each well of the 96-well plate. The plate was incubated for 30 minutes at 37° C. in the dark. The reaction was stopped by adding 75 microliter of stop buffer (4:1 acetonitrile-0.5 M Tris base) to each well, and the end point was measured in a fluorometer plate reader at λex=409 nm and λem=460 nm.

Sequence of CYP2D6 (P10635 whole entry): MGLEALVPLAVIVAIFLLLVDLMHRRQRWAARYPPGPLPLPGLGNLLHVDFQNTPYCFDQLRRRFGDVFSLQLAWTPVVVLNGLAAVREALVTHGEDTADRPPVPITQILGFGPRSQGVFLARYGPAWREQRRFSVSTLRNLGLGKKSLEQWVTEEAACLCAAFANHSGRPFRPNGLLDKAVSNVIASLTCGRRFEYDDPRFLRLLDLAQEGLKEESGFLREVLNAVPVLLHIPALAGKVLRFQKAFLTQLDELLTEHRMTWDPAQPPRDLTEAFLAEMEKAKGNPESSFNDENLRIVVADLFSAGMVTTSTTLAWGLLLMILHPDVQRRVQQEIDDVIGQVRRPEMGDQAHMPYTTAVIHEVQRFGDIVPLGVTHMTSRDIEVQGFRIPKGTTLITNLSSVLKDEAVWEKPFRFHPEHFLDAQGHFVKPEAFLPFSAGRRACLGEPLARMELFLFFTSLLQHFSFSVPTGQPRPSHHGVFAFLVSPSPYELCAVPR

Structure (SMILES) | IC50 (read-out: IC50 (inhibition concentration of CYP2D6), CYP2D6, 3-cyano-7-ethoxycoumarin substrate, 30 minutes at 37° C., fluorescence λex=409 nm, λem=460 nm) [µM] | IC50 [µM]
N[C@@H]1C[C@H]1c1ccccc1 (racemic) [Tranylcypromine, reference compound] | 2.4 | 
[2H]C1([2H])Oc2ccc(CC(C)NC)cc2O1 (single isomer, unassigned) [example 5, d2-N-methyl-1-(3,4-methylenedioxyphenyl)-2-aminopropane] |  | 8
[2H]C([2H])([2H])NC(C)Cc1ccc2c(c1)OC([2H])([2H])O2 (single isomer, unassigned) [example 6, d5-N-methyl-1-(3,4-methylenedioxyphenyl)-2-aminopropane] |  | 8
[2H]C(c1ccc2c(c1)OC([2H])([2H])O2)C([2H])(C)NC([2H])([2H])[2H] (single isomer, unassigned) [example 9, d7-N-methyl-1-(3,4-methylenedioxyphenyl)-2-aminopropane] |  | 30
CNC(C)Cc1ccc2c(c1)OCO2 (centres unmarked) [N-methyl-1-[3,4-methylenedioxyphenyl]-2-aminopropane, reference compound] |  | 3
